Measurements from paper PMC11971462, “Generation and validation of a novel multitarget small molecule in glioblastoma” (Cell Death & Disease, 2025).

Tested on: GNS166 cells
Assay: Label-free proteomics differential expression
Format: cell-based, human
Protocol: Proteomic studies were performed by the Proteomics Facility of the CIC bioGUNE by label-free relative quantification on nLC MS/MS. […] In both approaches, the top 20 enriched terms were plotted and the pathways were clustered using divisive hierarchical clustering based on pairwise Jaccard distances.

SMILES: C#CCN(Cc1cc2cc(OCCCN3CCCCC3)ccc2n1S(=O)(=O)c1ccccc1)C(=O)CCCCCCC(=O)NO [DDI]
- Direction TENS3_HUMAN (protein Q68CZ2): Down
- LogFC TENS3_HUMAN (protein Q68CZ2): -3.364
- LogFC LARP4_HUMAN (protein Q71RC2 GN=LARP4): 0.7689
- LogFC PEG10_HUMAN (protein Q86TG7 GN=PEG10): 3.16
- LogFC SETD3_HUMAN (protein Q86TU7 GN=SETD3): 0.5021
- Direction ACOT1_HUMAN (protein Q86TX2): Down
- LogFC ACOT1_HUMAN (protein Q86TX2): -1.83
- LogFC PABP2_HUMAN (protein Q86U42 GN=PABPN1): -1.1218
- Direction PB1_HUMAN (protein Q86U86): Down
- LogFC PB1_HUMAN (protein Q86U86): -2.078
- Direction PHLB1_HUMAN (protein Q86UU1): Down
- LogFC PHLB1_HUMAN (protein Q86UU1): -2.257
- Direction DTX2_HUMAN (protein Q86UW9): Down
- LogFC DTX2_HUMAN (protein Q86UW9): -1.305
- LogFC LUZP1_HUMAN (protein Q86V48 GN=LUZP1): 0.5884
- LogFC THOC4_HUMAN (protein Q86V81 GN=ALYREF): -0.9542
- Direction IQGA3_HUMAN (protein Q86VI3): Down
- LogFC IQGA3_HUMAN (protein Q86VI3): -2.742
- Direction MET16_HUMAN (protein Q86W50): Down
- LogFC MET16_HUMAN (protein Q86W50): -1.7557
- LogFC CCD25_HUMAN (protein Q86WR0 GN=CCDC25): 2.202
- LogFC NIT1_HUMAN (protein Q86X76 GN=NIT1): 0.9607
- Direction CNDG2_HUMAN (protein Q86XI2): Down
- LogFC CNDG2_HUMAN (protein Q86XI2): -2.11
- Direction ANKL2_HUMAN (protein Q86XL3): Down
- LogFC ANKL2_HUMAN (protein Q86XL3): -0.7885
- LogFC DDX42_HUMAN (protein Q86XP3 GN=DDX42): -0.6019
- Direction VRK2_HUMAN (protein Q86Y07): Down
- LogFC VRK2_HUMAN (protein Q86Y07): -1.564
- LogFC RAB43_HUMAN (protein Q86YS6 GN=RAB43): -1.528
- Direction RFT1_HUMAN (protein Q96AA3): Down
- LogFC RFT1_HUMAN (protein Q96AA3): -0.9928
- Direction TTC17_HUMAN (protein Q96AE7): Down
- LogFC TTC17_HUMAN (protein Q96AE7): -1.296
- LogFC PBIP1_HUMAN (protein Q96AQ6 GN=PBXIP1): 1.536
- LogFC SARAF_HUMAN (protein Q96BY9 GN=SARAF): 2.225
- LogFC ACSF2_HUMAN (protein Q96CM8 GN=ACSF2): 1.4396
- LogFC GCP3_HUMAN (protein Q96CW5 GN=TUBGCP3): -1.184
- LogFC RMXL1_HUMAN (protein Q96E39 GN=RBMXL1): 1.251
- LogFC SGTB_HUMAN (protein Q96EQ0 GN=SGTB): 0.9619
- Direction WDR34_HUMAN (protein Q96EX3): Down
- LogFC WDR34_HUMAN (protein Q96EX3): -2.769
- LogFC DYL2_HUMAN (protein Q96FJ2 GN=DYNLL2): 1.408
- Direction CERS2_HUMAN (protein Q96G23): Down
- LogFC CERS2_HUMAN (protein Q96G23): -1.352
- Direction AURKB_HUMAN (protein Q96GD4): Down
- LogFC AURKB_HUMAN (protein Q96GD4): -0.8936
- Direction TOE1_HUMAN (protein Q96GM8): Down
- LogFC TOE1_HUMAN (protein Q96GM8): -1.175
- Direction ITCH_HUMAN (protein Q96J02): Down
- LogFC ITCH_HUMAN (protein Q96J02): -0.7634
- Direction TOPK_HUMAN (protein Q96KB5): Down
- LogFC TOPK_HUMAN (protein Q96KB5): -2.0632
- Direction EHMT2_HUMAN (protein Q96KQ7): Down
- LogFC EHMT2_HUMAN (protein Q96KQ7): -1.8
- Direction EP400_HUMAN (protein Q96L91): Down
- LogFC EP400_HUMAN (protein Q96L91): -2.0331
- Direction TRI47_HUMAN (protein Q96LD4): Down
- LogFC TRI47_HUMAN (protein Q96LD4): -1.137
- LogFC FXL18_HUMAN (protein Q96ME1 GN=FBXL18): 0.7929
- LogFC DCBD2_HUMAN (protein Q96PD2 GN=DCBLD2): -0.7605
- LogFC NED4L_HUMAN (protein Q96PU5 GN=NEDD4L): 1.365
- LogFC S38A2_HUMAN (protein Q96QD8 GN=SLC38A2): 0.9305
- Direction MCCA_HUMAN (protein Q96RQ3): Down
- LogFC MCCA_HUMAN (protein Q96RQ3): -0.7659
- Direction INT14_HUMAN (protein Q96SY0): Down
- LogFC INT14_HUMAN (protein Q96SY0): -0.8896
- Direction RSF1_HUMAN (protein Q96T23): Down
- LogFC RSF1_HUMAN (protein Q96T23): -2.084
- Direction UHRF1_HUMAN (protein Q96T88): Down
- LogFC UHRF1_HUMAN (protein Q96T88): -2.206
- Direction VIGLN_HUMAN (protein Q00341): Down
- LogFC VIGLN_HUMAN (protein Q00341): -1.004
- Direction PAR14_HUMAN (protein Q460N5): Down
- LogFC PAR14_HUMAN (protein Q460N5): -1.711
- LogFC CDK5_HUMAN (protein Q00535 GN=CDK5): 1.129
- LogFC M17L2_HUMAN (protein Q567V2 GN=MPV17L2): 1.68
- LogFC PURA_HUMAN (protein Q00577 GN=PURA): 0.4477
- LogFC SFT2C_HUMAN (protein Q587I9 GN=SFT2D3): -1.885
- LogFC ACD11_HUMAN (protein Q709F0 GN=ACAD11): -0.7894
- LogFC CAP1_HUMAN (protein Q01518 GN=CAP1): 0.6335
- Direction OTUD4_HUMAN (protein Q01804): Down
- LogFC OTUD4_HUMAN (protein Q01804): -1.044
- Direction BDH_HUMAN (protein Q02338): Down
- LogFC BDH_HUMAN (protein Q02338): -0.9278
- LogFC DSC2_HUMAN (protein Q02487 GN=DSC2): 2.478
- LogFC AKA12_HUMAN (protein Q02952 GN=AKAP12): 2.896
- LogFC KIME_HUMAN (protein Q03426 GN=MVK): -0.3731
- Direction ERCC6_HUMAN (protein Q03468): Down
- LogFC ERCC6_HUMAN (protein Q03468): -0.8508
- Direction TAP1_HUMAN (protein Q03518): Down
- LogFC TAP1_HUMAN (protein Q03518): -0.8528
- Direction TAP2_HUMAN (protein Q03519): Down
- LogFC TAP2_HUMAN (protein Q03519): -0.8847
- Direction GLGB_HUMAN (protein Q04446): Down
- LogFC GLGB_HUMAN (protein Q04446): -0.6914
- Direction SRS11_HUMAN (protein Q05519): Down
- LogFC SRS11_HUMAN (protein Q05519): -0.4029
- Direction FOLC_HUMAN (protein Q05932): Down
- LogFC FOLC_HUMAN (protein Q05932): -1.856
- LogFC PUR1_HUMAN (protein Q06203 GN=PPAT): 0.9093
- LogFC GFPT1_HUMAN (protein Q06210 GN=GFPT1): -0.4508
- LogFC PRDX1_HUMAN (protein Q06830 GN=PRDX1): 1.081
- Direction B2CL1_HUMAN (protein Q07817): Down
- LogFC B2CL1_HUMAN (protein Q07817): -1.289
- Direction RHG01_HUMAN (protein Q07960): Down
- LogFC RHG01_HUMAN (protein Q07960): -0.6872
- Direction AHNK_HUMAN (protein Q09666): Down
- LogFC AHNK_HUMAN (protein Q09666): -0.5648
- Direction CPSF1_HUMAN (protein Q10570): Down
- LogFC CPSF1_HUMAN (protein Q10570): -0.5217
- LogFC SCRN1_HUMAN (protein Q12765 GN=SCRN1): -0.7259
- Direction CDC20_HUMAN (protein Q12834): Down
- LogFC CDC20_HUMAN (protein Q12834): -2.397
